Molecular target: antibody D2.3
Assay: Binding of the product to the catalytic antibody
Design: species or system Balb/c mice
Details: binding to antibody D2.3

- Kd: 52 µM
Compound: O=[N+]([O-])c1ccc(CO)cc1 [p-nitrobenzyl alcohol]
